Article PMC3889502, “Inhibitory effects of monoterpenes on human TRPA1 and the structural basis of their activity” (The Journal of Physiological Sciences : JPS, 2013)
“Also recorded” adds a separate entry of the source. Blank lines part the entries; values can stand above or below the molecule they belong to.

Tests used:
hTRPA1 [1] = molecular target: T1, hTRPA1 (Homo sapiens, UniProt O75762); experiment: Ca2+-imaging (fura-2): activation by test compounds, normalized to menthol; format: cell-based; conditions: test compound 1 mM; HEK293T cells expressing hTRPA1
T1 construct: Full-length hTRPA1 was obtained from Life Technologies (Carlsbad, CA); host or cells: HEK293T
T1 sequence (O75762 whole entry): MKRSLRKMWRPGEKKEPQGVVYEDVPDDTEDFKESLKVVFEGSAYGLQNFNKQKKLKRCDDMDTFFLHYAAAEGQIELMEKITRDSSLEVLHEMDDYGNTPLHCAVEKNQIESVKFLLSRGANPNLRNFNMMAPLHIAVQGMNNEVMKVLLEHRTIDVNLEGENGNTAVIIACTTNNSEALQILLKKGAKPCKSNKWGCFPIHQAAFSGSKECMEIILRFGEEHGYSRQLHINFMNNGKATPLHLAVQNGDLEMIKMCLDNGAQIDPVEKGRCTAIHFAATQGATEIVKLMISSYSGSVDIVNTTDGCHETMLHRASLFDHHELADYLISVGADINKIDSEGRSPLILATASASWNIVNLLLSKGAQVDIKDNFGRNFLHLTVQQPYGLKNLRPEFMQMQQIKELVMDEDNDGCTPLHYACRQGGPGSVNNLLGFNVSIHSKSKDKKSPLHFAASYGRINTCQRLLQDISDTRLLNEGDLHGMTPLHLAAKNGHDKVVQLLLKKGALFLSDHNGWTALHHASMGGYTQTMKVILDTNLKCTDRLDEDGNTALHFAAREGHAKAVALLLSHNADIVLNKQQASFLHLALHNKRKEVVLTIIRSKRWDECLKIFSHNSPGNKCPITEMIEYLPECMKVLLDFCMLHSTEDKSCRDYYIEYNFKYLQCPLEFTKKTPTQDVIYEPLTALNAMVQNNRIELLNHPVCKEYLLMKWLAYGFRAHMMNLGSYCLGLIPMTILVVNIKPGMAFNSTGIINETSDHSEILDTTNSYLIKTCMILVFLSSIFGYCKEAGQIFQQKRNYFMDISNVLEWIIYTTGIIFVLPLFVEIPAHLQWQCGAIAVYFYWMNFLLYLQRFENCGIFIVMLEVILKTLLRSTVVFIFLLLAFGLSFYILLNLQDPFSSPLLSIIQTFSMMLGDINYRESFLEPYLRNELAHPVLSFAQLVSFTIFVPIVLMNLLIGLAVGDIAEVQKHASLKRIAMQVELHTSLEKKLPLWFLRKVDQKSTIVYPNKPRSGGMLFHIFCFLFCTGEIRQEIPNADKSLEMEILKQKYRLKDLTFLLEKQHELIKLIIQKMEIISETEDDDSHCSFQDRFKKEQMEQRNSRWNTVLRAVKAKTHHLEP
Method: (§1) For Ca^2+-imaging, 1 μg of plasmid DNA containing hTRPA1 in pcDNA3 in OPTI-MEM medium (Life Technologies) was transfected into HEK293T cells using Lipofectamine Plus Reagent (Life Technologies). Following incubation for 3–4 h, cells were reseeded on coverslips and incubated further at 37 °C in 5 % CO2.
(§2) Ca^2+-imaging was performed 1 day after transfection. […] Cytosolic-free Ca^2+ concentrations in HEK293T cells were measured by dual-wavelength fura-2 (Molecular Probes, Invitrogen Corp.) microfluorometry with excitation at 340/380 nm and emission at 510 nm. The fura-2 ratio image was calculated and acquired using the IP-Lab imaging processing system (Scanalytics Inc, Fairfax, VA). Ionomycin was used to confirm cell viability in the vector-transfected cells.
In these experiments, changes in the fura-2 ratio (corresponding to cytosolic Ca^2+ concentrations) induced by the test compounds and menthol were compared because menthol, which activates hTRPA1, and the test compounds are members of the monoterpene family.
Data are presented as the mean ± standard error of the mean (SEM) (n = 27–67)

hTRPA1 [2] = molecular target: T1, hTRPA1; conditions: cited from earlier work
hTRPA1-Y812A = molecular target: T2, hTRPA1-Y812A (Homo sapiens, UniProt O75762, Y812A); experiment: Whole-cell patch-clamp: inhibition of AITC-activated current in the mutant channel; format: cell-based; conditions: borneol 0.03, 0.3, 1 mM; camphor 0.03, 0.3, 3 mM; 1,8-cineole 1, 5, 10 mM; -60 mV; no extracellular Ca2+
T2 construct: Full-length hTRPA1 was obtained from Life Technologies (Carlsbad, CA); expressed in transfected cells; host or cells: HEK293T
T2 sequence (O75762 whole entry Y812A): as the sequence (O75762 whole entry) above, with Y812A counted along it
Method: (§3) Whole-cell patch-clamp recordings were performed 1 day after transfection. The standard bath solution was the same as that used in the Ca^2+-imaging experiments, and extracellular Ca^2+ was removed and 5 mM EGTA added for the recording of AITC-, menthol- and FFA-induced current responses. The pipette solution contained 140 mM KCl, 5 mM EGTA, and 10 mM HEPES, pH 7.4 (adjusted with KOH). Data from the whole-cell voltage-clamp recordings were sampled at 10 kHz and filtered at 5 kHz for analysis (Axon 200B amplifier with pCLAMP software; Axon Instruments, Sunnyvale, CA). The membrane potential was clamped at −60 mV for all conditions. In some experiments, voltage ramp-pulses from −100 to +100 mV (500 ms) were applied every 5 s. All experiments were performed at room temperature.
(§4) Data in all of the figures are shown as the mean ± standard error of the mean, and P values of <0.05 were considered to be significant. […] Dose-dependent curves were fit with a Hill equation.
(§5) To test this hypothesis, we investigated whether the serine and threonine residues are involved in the inhibitory effect of borneol. […] We searched for an involvement of other amino acids in borneol activity.

hTRPA1-S873V/T874L = molecular target: T3, hTRPA1-S873V/T874L (Homo sapiens, UniProt O75762, S873V/T874L); experiment: as above; format: cell-based; conditions: borneol 0.03, 0.3, 1 mM; camphor 0.03, 0.3, 3 mM; 1,8-cineole 1, 5, 10 mM; -60 mV; no extracellular Ca2+
T3 construct: Full-length hTRPA1 was obtained from Life Technologies (Carlsbad, CA); expressed in transfected cells; host or cells: HEK293T
T3 sequence (O75762 whole entry S873V/T874L): as the sequence (O75762 whole entry) above, with S873V, T874L counted along it
Method: as §3, §4, §5

hTRPA1 [3] = molecular target: T1, hTRPA1; experiment: Whole-cell patch-clamp: inhibition of agonist-induced hTRPA1 current; format: cell-based; conditions: for IC50 / Inhibition of AITC-induced hTRPA1 current: AITC 20 μM; for IC50: patch-clamp, mean ± SEM, n = 5-10, Hill fit; for IC50 / Inhibition of AITC-induced hTRPA1 current / Inhibition of FFA-activated hTRPA1-mediated current / Inhibition of menthol-activated hTRPA1-mediated current: no extracellular Ca2+; for Inhibition of AITC-induced hTRPA1 current / Inhibition of FFA-activated hTRPA1-mediated current / Inhibition of menthol-activated hTRPA1-mediated current: test compound 1 mM, -60 mV; for Inhibition of FFA-activated hTRPA1-mediated current: FFA 100 μM; for Inhibition of menthol-activated hTRPA1-mediated current: menthol 1 mM; for Comparison of inhibitory effects on hTRPA1 activity between optical isomers of borneol: AITC 20 μM-induced current (ESM Fig. 2)
Method: (§6) Human embryonic kidney (HEK) 293T cells were maintained in DMEM (WAKO Pure Chemical Industries Ltd.) supplemented with 10 % fetal bovine serum (Biowest SAS, Caille, France), 100 U/mL penicillin (Life Technologies), 100 μg/mL streptomycin (Life Technologies), and 2 mM L-glutamine (GlutaMAX; Life Technologies) at 37 °C in 5 % CO2. For Ca^2+-imaging, 1 μg of plasmid DNA containing hTRPA1 in pcDNA3 in OPTI-MEM medium (Life Technologies) was transfected into HEK293T cells using Lipofectamine Plus Reagent (Life Technologies). Following incubation for 3–4 h, cells were reseeded on coverslips and incubated further at 37 °C in 5 % CO2.
as §3, §4
The current response was measured in the absence of extracellular Ca^2+ to minimize desensitization. […] The dose-dependency of the inhibitory effects of the three compounds on hTRPA1 was then examined using the patch-clamp method. […] Commercially available borneol contains both optical isomers.

hTRPA1 [4] = molecular target: T1, hTRPA1; experiment: Whole-cell patch-clamp: activation of hTRPA1 current by test compounds; format: cell-based; conditions: HEK293T cells expressing hTRPA1
Method: as §6, §3
In order to confirm the effects of the above compounds, we performed patch-clamp experiments with HEK293T cells expressing hTRPA1.
Cells were held at −60 mV and ramp-pulses from −100 to +100 mV (500 ms) were administered every 5 s

[5] = system: vector-transfected HEK293T cells; experiment: Ca2+-imaging in vector-transfected cells (control); format: cell-based, human; conditions: with or without menthol; cells responded normally to ionomycin 5 μM
Method: (§7) Ca^2+-imaging was performed 1 day after transfection. HEK293T cells on coverslips were mounted in an open chamber and superfused with a standard bath solution (140 mM NaCl, 5 mM KCl, 2 mM MgCl2, 2 mM CaCl2, 10 mM HEPES, and 10 mM glucose, pH 7.4). Cytosolic-free Ca^2+ concentrations in HEK293T cells were measured by dual-wavelength fura-2 (Molecular Probes, Invitrogen Corp.) microfluorometry with excitation at 340/380 nm and emission at 510 nm. The fura-2 ratio image was calculated and acquired using the IP-Lab imaging processing system (Scanalytics Inc, Fairfax, VA). Ionomycin was used to confirm cell viability in the vector-transfected cells.
Washing-out of the three compounds after menthol exposure led to small increases in the fura-2 ratio, which could be due to the loss of inhibition and resumption of hTRPA1 activity from residual menthol in the cell.
Supplementary file 12576_2013_289_MOESM1_ESM.jpg: Supplementary material 1 (JPEG 324 kb) Supplementary Figure 1. […] (n = 48-75)

hTRPA1 [6] = molecular target: T1, hTRPA1; experiment: Ca2+-imaging (fura-2): inhibition of menthol-induced cytosolic Ca2+ increase; format: cell-based; conditions: menthol 1 mM; test compound 1 mM; HEK293T cells expressing hTRPA1
Method: as §1, §2
Data are presented as the mean ± SEM (n = 47–79)

hTRPA1 Y812A mutant = molecular target: T4, hTRPA1 Y812A mutant (Homo sapiens, UniProt O75762, Y812A); experiment: Ca2+-imaging screen of tyrosine mutants in TM2 and TM3 of hTRPA1; format: cell-based; conditions: data not shown
T4 construct: Full-length hTRPA1 was obtained from Life Technologies (Carlsbad, CA); expressed in transfected cells; host or cells: HEK293T
T4 sequence (O75762 whole entry Y812A): as the sequence (O75762 whole entry) above, with Y812A counted along it
Method: as §7
A mouse TRPA1 mutant in which serine and threonine residues located in the predicted inner side of TM5 were replaced with valine and leucine (S876V/T877L), respectively, was neither activated nor inhibited by menthol. […] To test this hypothesis, we investigated whether the serine and threonine residues are involved in the inhibitory effect of borneol. […] We searched for an involvement of other amino acids in borneol activity.

mTRPA1 = conditions: camphor 1 mM; current increased upon washing-out; cited from earlier work
[7] = test compound 1 mM, held at -60 mV, ramp-pulses -100 to +100 mV

Change in fura-2 ratio (340/380 nm) by test compound, normalized to the change by 1 mM menthol (hTRPA1 [1]): activated hTRPA1
SMILES: CC12CCC(C1)C(C)(C)C2=O (single isomer, unassigned; (-)) [(−)-Fenchone]

Inhibitory effect on AITC-activated current of hTRPA1-S873V/T874L compared with hTRPA1-WT (hTRPA1-S873V/T874L): no significant changes
SMILES: CC12CCC(CC1)C(C)(C)O2 [1,8-Cineole]
Inhibitory effect on AITC-activated current of hTRPA1-Y812A compared with hTRPA1-WT (hTRPA1-Y812A): such differences between WT hTRPA1 and hTRPA1-Y812A were not observed
Effect on hTRPA1 (activation or inhibition) (hTRPA1 [2]): inhibit hTRPA1

IC50 (hTRPA1 [3]): 120 ± 30 µM
Inhibition of AITC-induced hTRPA1 current (hTRPA1 [3]): completely inhibited
Inhibition of FFA-activated hTRPA1-mediated current (hTRPA1 [3]): completely inhibited
Inhibition of menthol-activated hTRPA1-mediated current (hTRPA1 [3]): completely inhibited
Change in fura-2 ratio (340/380 nm) by test compound, normalized to the change by 1 mM menthol (hTRPA1 [1]): small changes in the fura-2 ratio
Activation of whole-cell hTRPA1 current (hTRPA1 [4]; [7]): did not activate hTRPA1
Inhibition of the menthol-induced increase in fura-2 ratio (hTRPA1 [6]): almost completely blocked
SMILES: CC1(C)[C@@H]2CC[C@@]1(C)[C@](C)(O)C2 [2-Methylisoborneol]
Effect on fura-2 ratio in vector-transfected cells [5]: did not provide any effect; also recorded: No changes in the fura-2 ratio

Comparison of inhibitory effects on hTRPA1 activity between optical isomers of borneol (hTRPA1 [3]): no difference in the inhibitory effects
SMILES: CC1(C)[C@H]2CC[C@]1(C)[C@H](O)C2 [(−)-borneol]

IC50 (hTRPA1 [3]): 200 ± 60 µM
Inhibition of AITC-induced hTRPA1 current (hTRPA1 [3]): completely inhibited
Inhibition of FFA-activated hTRPA1-mediated current (hTRPA1 [3]): completely inhibited
Inhibition of menthol-activated hTRPA1-mediated current (hTRPA1 [3]): completely inhibited
Effect of borneol on the Y812A mutant in Ca2+-imaging (hTRPA1 Y812A mutant): reduced
Change in fura-2 ratio (340/380 nm) by test compound, normalized to the change by 1 mM menthol (hTRPA1 [1]): small changes in the fura-2 ratio
Inhibitory effect on AITC-activated current of hTRPA1-Y812A compared with hTRPA1-WT (hTRPA1-Y812A): significantly lower inhibitory effect
Inhibitory effect on AITC-activated current of hTRPA1-S873V/T874L compared with hTRPA1-WT (hTRPA1-S873V/T874L): significantly lower
Activation of whole-cell hTRPA1 current (hTRPA1 [4]; [7]): did not activate hTRPA1
Inhibition of the menthol-induced increase in fura-2 ratio (hTRPA1 [6]): almost completely blocked
SMILES: CC1(C)C2CCC1(C)C(O)C2 (centres unmarked) [Borneol]
Effect on fura-2 ratio in vector-transfected cells [5]: did not provide any effect; also recorded: No changes in the fura-2 ratio

Inhibition of AITC-induced hTRPA1 current (hTRPA1 [3]): partially inhibited
Inhibitory effect on AITC-activated current of hTRPA1-S873V/T874L compared with hTRPA1-WT (hTRPA1-S873V/T874L): no significant changes
SMILES: CC12CCC(CC1=O)C2(C)C (centres unmarked) [Camphor]
Inhibitory effect on AITC-activated current of hTRPA1-Y812A compared with hTRPA1-WT (hTRPA1-Y812A): such differences between WT hTRPA1 and hTRPA1-Y812A were not observed
Effect on mTRPA1-mediated basal current (mTRPA1): inhibition of mTRPA1-mediated basal current
Effect on hTRPA1 (activation or inhibition) (hTRPA1 [2]): inhibit hTRPA1

Inhibition of AITC-induced hTRPA1 current (hTRPA1 [3]): completely inhibited
Inhibition of FFA-activated hTRPA1-mediated current (hTRPA1 [3]): completely inhibited
Inhibition of menthol-activated hTRPA1-mediated current (hTRPA1 [3]): completely inhibited
Activation of whole-cell hTRPA1 current (hTRPA1 [4]; [7]): did not activate hTRPA1
SMILES: CC12CCC(C1)C(C)(C)C2O (centres unmarked) [Fenchyl alcohol]

More lines, now with the values behind:

SMILES: CC(C)C12CCC(C)(CC1)O2 [1,4-cineole]
Effect on hTRPA1 (activation or inhibition) (hTRPA1 [2]): activate hTRPA1

SMILES: CC1(C)[C@@H]2CC[C@@]1(C)[C@@H](O)C2 [(+)-borneol]
Comparison of inhibitory effects on hTRPA1 activity between optical isomers of borneol (hTRPA1 [3]): no difference in the inhibitory effects

SMILES: C=CCN=C=S [AITC, allyl isothiocyanate, reference compound]
Activation of whole-cell hTRPA1 current (hTRPA1 [4]; AITC 20 μM): robust current activation with outward rectification

SMILES: O=C1CC2CC[C@H]1C2 [Norcamphor]
Change in fura-2 ratio (340/380 nm) by test compound, normalized to the change by 1 mM menthol (hTRPA1 [1]): small changes in the fura-2 ratio
Activation of whole-cell hTRPA1 current (hTRPA1 [4]; [7]): did not activate hTRPA1
Effect on fura-2 ratio in vector-transfected cells [5]: did not provide any effect; also recorded: No changes in the fura-2 ratio
Inhibition of the menthol-induced increase in fura-2 ratio (hTRPA1 [6]): did not inhibit

SMILES: CC1CCC(C(C)C)C(O)C1 (centres unmarked) [menthol]
Effect on hTRPA1 (activation or inhibition) (hTRPA1 [2]): activate hTRPA1
